What all share (type): cell-based
In experiment [1] the target is T1, P2RY14 (Homo sapiens, UniProt Q15391).
T1 sequence (Q15391 1-338): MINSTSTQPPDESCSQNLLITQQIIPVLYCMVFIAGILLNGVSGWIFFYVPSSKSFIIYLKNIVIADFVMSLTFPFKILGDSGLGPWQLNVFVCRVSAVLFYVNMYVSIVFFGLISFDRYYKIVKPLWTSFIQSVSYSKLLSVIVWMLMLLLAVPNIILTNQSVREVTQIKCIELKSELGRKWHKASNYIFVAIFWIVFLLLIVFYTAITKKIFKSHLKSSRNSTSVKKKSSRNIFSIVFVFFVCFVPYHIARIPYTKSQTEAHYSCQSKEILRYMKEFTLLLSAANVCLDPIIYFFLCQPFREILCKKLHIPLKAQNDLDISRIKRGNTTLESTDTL
Briefly: FLIPR whole cell Ca2+ agonist assay, HEK cells expressing human P2RY14 and Gqi5. Conditions: HEK cells expressing human P2RY14 and Gqi5, FLIPR. The arrangement: expressed in transfected cells. From the text: (§1) Stable HEK clonal cell lines expressing P2RY14 and the chimeric G protein Gqi5 were constructed. The chimeric Gqi5 forces the coupling of P2RY14 through the Gq (calcium) pathway and allows for monitoring of calcium signaling using a calcium binding fluorescent dye and a FLIPR (fluorometric imaging plate reader, MDS Sciex). Vector pCEP4 comprising the chimeric Gqi5 was obtained from Molecular Devices, Sunnyvale, Calif. (Cat. No. RD-PGQI5).
The human P2RY14 was PCR amplified from the I.M.A.G.E. clone obtained from Invitrogen, Carlsbad, Calif. […] The codon encoding glutamate at position 54 in the wild-type human P2RY14 was changed to code for lysine. […] The PCR reaction was done in two parts. In the first part, the reaction was 5 cycles at 94° C. for 30 seconds, 65° C. for 30 seconds, and 72° C. for 90 seconds. In the second part, the reaction was 25 cycles at 94° C. for 30 seconds, 70° C. for 30 seconds, 72° C. for 90 seconds. The last cycle was followed by 7 minutes at 72° C. The PCR amplified human P2RY14 was digested with KpnI and NotI and cloned into a pcDNA3.1 (+) vector previously digested with KpnI and NotI to place the DNA fragment in the proper orientation downstream of the CMV promoter. The nucleic acid encoding the human P2RY14 was under the control of the CMV promoter.
(§2) Cells were grown in DMEM medium containing 25 mM HEPES, pH 7.4 and 10% FBS, 50 units/ml penicillin/50 μg/ml streptomycin, 2 mM glutamine and 1 mM sodium pyruvate at 37° C. in humidified air containing 5% CO2. Two days post-transfection, cells were grown under selection in the DMEM medium as indicated above and supplemented with 200 μg/ml Hygromycin B and 250 μg/ml geneticin.
(§3) Cells were incubated overnight at 37° C. and 5% CO2 to form a monolayer. On the following day, 30 μl of fluorescent no-wash dye was added to the cell monolayer and the plate was incubated for 60 minutes at 37° C., 5% CO2.
(§4) For agonist assays, 6.12 μl of 10× agonist solution was added to the cell/dye incubation and Ca^2+ signaling was monitored by FLIPR. For antagonist assays, 250 nl of compound in 100% DMSO was added to cell/dye mixture; following a 20 minute incubation at room temperature, 6.12 μl of 10× agonist solution at EC80 in HBSS containing 20 mM Hepes was added to cells and Ca^2+ signaling was monitored by FLIPR. Quantitation of the % stimulation or inhibition of Ca^2+ signaling by agonist or antagonist, respectively, was calculated using the Max-Min fluorescent signal detected.

In experiment [2] the target is T2, mouse P2RY14 (Mus musculus, UniProt Q9ESG6).
T2 construct: expressed in transfected cells
T2 sequence (Q9ESG6 1-338): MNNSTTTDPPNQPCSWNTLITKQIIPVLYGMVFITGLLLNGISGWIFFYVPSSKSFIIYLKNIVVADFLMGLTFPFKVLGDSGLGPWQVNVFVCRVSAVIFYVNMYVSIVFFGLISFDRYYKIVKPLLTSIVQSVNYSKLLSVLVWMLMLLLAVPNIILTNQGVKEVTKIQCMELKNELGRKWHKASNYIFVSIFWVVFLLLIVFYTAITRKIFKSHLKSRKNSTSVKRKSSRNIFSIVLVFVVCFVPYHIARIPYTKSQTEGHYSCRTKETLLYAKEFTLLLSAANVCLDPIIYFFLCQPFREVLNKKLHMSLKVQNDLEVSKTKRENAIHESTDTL
The experiment is described as follows: FLIPR whole cell Ca2+ agonist assay, HEK cells expressing mouse P2RY14 and Gqi5.
From the text: as §1
The nucleic acid encoding the mouse P2RY14 was under the control of the CMV promoter.
as §2, §3, §4

For experiment [3], the system named is simian (chimpanzee) P2RY14. Briefly: FLIPR whole cell Ca2+ agonist assay, HEK cells expressing simian (chimpanzee) P2RY14 and Gqi5.
From the text: as §1
The simian (chimpanzee) P2RY14 nucleic acid fragment was synthesized based upon the Ensembl Gene ID ENSPTRG00000030093 by Bio S & T, Montreal, Quebec, Canada, to be flanked with KpnI and NotI restriction enzyme sites. […] The DNA fragment was digested with KpnI and NotI and then cloned into a pcDEF3 vector previously digested with KpnI and NotI to place the DNA fragment in the proper orientation downstream of the human EF-1a promoter. The nucleic acid encoding the simian P2RY14 was under the control of the human EF-1a promoter.
as §2, §3, §4

In experiment [4] the test system is HEK cells not expressing P2RY14. Briefly: FLIPR Ca2+ release in HEK cells not expressing P2RY14 (specificity).

With `O=c1ccn([C@@H]2O[C@H](COP(=O)(O)O)[C@@H](O)[C@H]2O)c(=O)[nH]1` [UMP], the “activation of P2RY14 (Ca2+ signaling)” value in experiment [1], in experiment [2] and in experiment [3] was “activated” each time. For the same compound, in experiment [4], the “Ca2+ release in cells not expressing P2RY14” value is on record as “do not stimulate Ca^2+ release”.

The record behind these values is patent publication US20090148850A1, “Methods for identifying modulators of P2RY14” (priority 2007, published 2009).
